Data taken from the NIST ThermoML archive (doi:10.1016/j.fluid.2008.01.024).
Numbers after ± are expanded uncertainties.

How the values were obtained:
[1] = relative permittivity at zero frequency (dimensionless); conditions: 303.15 K; 101 kPa; Liquid; capacitive measurement method
[2] = relative permittivity at zero frequency (dimensionless); xn = mol fraction of the nth substance listed; conditions: 303.15 K, 101 kPa, Liquid, capacitive measurement method

CN(C)CCO [2-(N,N-dimethylamino)ethanol]
relative permittivity at zero frequency [1]: 17.18 ± 0.1

CN(C)CCO [2-(N,N-dimethylamino)ethanol] + OCC(O)CO
relative permittivity at zero frequency ([2]; x2 = 0): 17.18 ± 0.1
relative permittivity at zero frequency ([2]; x2 = 0.09): 18.66 ± 0.11
relative permittivity at zero frequency ([2]; x2 = 0.175): 20.4 ± 0.12
relative permittivity at zero frequency ([2]; x2 = 0.257): 22.09 ± 0.13
relative permittivity at zero frequency ([2]; x2 = 0.334): 23.83 ± 0.14
relative permittivity at zero frequency ([2]; x2 = 0.409): 25.5 ± 0.15
relative permittivity at zero frequency ([2]; x2 = 0.48): 27.25 ± 0.16
relative permittivity at zero frequency ([2]; x2 = 0.547): 28.98 ± 0.17
relative permittivity at zero frequency ([2]; x2 = 0.612): 30.54 ± 0.18
relative permittivity at zero frequency ([2]; x2 = 0.675): 32.59 ± 0.2
relative permittivity at zero frequency ([2]; x2 = 0.734): 33.74 ± 0.2
relative permittivity at zero frequency ([2]; x2 = 0.792): 35.03 ± 0.21
relative permittivity at zero frequency ([2]; x2 = 0.847): 37.13 ± 0.22
relative permittivity at zero frequency ([2]; x2 = 0.9): 38.63 ± 0.23
relative permittivity at zero frequency ([2]; x2 = 0.951): 39.96 ± 0.24

CN(C)C=O [dimethylformamide]
relative permittivity at zero frequency [1]: 36.55 ± 0.22

CN(C)C=O [dimethylformamide] + OCC(O)CO
relative permittivity at zero frequency ([2]; x2 = 0): 36.55 ± 0.22

NC=O [formamide]
relative permittivity at zero frequency [1]: 106.14 ± 0.64

NC=O [formamide] + OCC(O)CO
relative permittivity at zero frequency ([2]; x2 = 0): 106.14 ± 0.64
relative permittivity at zero frequency ([2]; x2 = 0.037): 103.13 ± 0.62
relative permittivity at zero frequency ([2]; x2 = 0.077): 100.3 ± 0.6
relative permittivity at zero frequency ([2]; x2 = 0.12): 96.91 ± 0.58
relative permittivity at zero frequency ([2]; x2 = 0.165): 93.46 ± 0.56
relative permittivity at zero frequency ([2]; x2 = 0.214): 89.87 ± 0.54
relative permittivity at zero frequency ([2]; x2 = 0.266): 85.74 ± 0.51
relative permittivity at zero frequency ([2]; x2 = 0.322): 81.37 ± 0.49
relative permittivity at zero frequency ([2]; x2 = 0.383): 76.3 ± 0.46
relative permittivity at zero frequency ([2]; x2 = 0.449): 71.94 ± 0.43
relative permittivity at zero frequency ([2]; x2 = 0.521): 66.48 ± 0.4
relative permittivity at zero frequency ([2]; x2 = 0.599): 61.52 ± 0.37
relative permittivity at zero frequency ([2]; x2 = 0.685): 56.42 ± 0.34
relative permittivity at zero frequency ([2]; x2 = 0.779): 50.76 ± 0.3
relative permittivity at zero frequency ([2]; x2 = 0.884): 45.45 ± 0.27
